Columns and labels:
[1] = tested on: CD19+CD38+CD27+ ASCs; test: Survival and apoptosis of differentiated antibody-secreting cells (ASCs) from PBMC, Annexin V/7-AAD; assay type: cell-based, human; conditions: added for 12 hours on Day 5
Experimental: (§1) The immunoproteasome plays important roles in T cell differentiation and proliferation and dendritic cell activation and maturation[14],[20],[24]. However, its role in B cell differentiation is not well understood. […] Differentiated ASCs were then exposed to PKS21221 at indicated concentrations and cell survival was determined with Annexin V and 7-aminoactinomycin D (7-AAD) at three-time points (12-h, 24-h, and 48-h after treatment). […] In addition, the cytotoxicity of PKS21221 to different cell populations in PBMC was examined and compared to the cytotoxicity of bortezomib. PBMCs were incubated with PKS21221 or bortezomib, and the viability was assessed in T cells (CD3^+), B cells (CD19^+), monocytes (CD14^+) and dendritic cells (CD3^−CD19^−CD14^−CD16^−CD11c^+HLA-DR^+), respectively (Supplementary Fig. 13b–e).
PBMCs were cultured with or without IL-2/R848 for 5 days, followed by 12-h incubation with PKS21221 at different concentrations. a Representative flow cytometry plots of cells treated with IL-2 and R848 in the presence and absence of PKS21221. […] Annexin V^+7-AAD^− cells were referred as “Early apoptosis” population, and Annexin V^+7-AAD^+ cells were referred as “Dead” population. d Percentage of early apoptotic ASCs (left) and dead ASCs (right), after 12-h incubation with PKS21221.
Human peripheral blood samples were obtained from five different healthy volunteers (BWH Specimen Bank). Peripheral blood mononuclear cells (PBMCs) were isolated by density gradient centrifugation using Lymphoprep (StemCell Technologies). PBMCs were cultured at 1.5 × 10^6 cells per mL in RPMI 1640 media (Lonza), supplemented with 10% human serum (GemCell) (10% HS-RPMI), recombinant human IL-2 10 ng per mL (or 100 U per ml, BioLegend) and R848 1 µg per mL (Cayman Chemicals) for 5 days, at 37 °C, 5% CO2. PKS21221 in DMSO, or DMSO only for control, was added to the culture media on day 5, and cells were incubated for additional 12, 24, and 48 h.

[2] = tested on: resting CD3+ T cells and CD19+ B cells; test: Viability assay of human PBMC populations (Fixable Viability dye); assay type: cell-based; conditions: 10 nM bortezomib vs 1 μM PKS21221
Experimental: as §1
(1 picture or pasted object on this page, not shown here)

[3] = tested on: T cells; test: In vitro T-cell proliferation, anti-CD3/anti-CD28; assay type: cell-based, human; conditions: anti-CD3 and anti-CD28 stimulation
Source text: (§2) As we observed selective cytotoxicity of PKS21221 in activated B cells and ASCs compared to non-activated B cells, we asked whether this is the case in proliferating T cells. We activated human T cells to proliferate with anti-CD3 and anti-CD28 in the presence or absence of PKS21221 or bortezomib. […] To examine whether these inhibitors are cytotoxic preferentially to proliferating cells, we triggered T-cell proliferation with anti-CD3/anti-CD28 for 4 days (in the absence of inhibitors), treated the cells with PKS21221 for the next 24 h and determined cell survival with Annexin V and 7-AAD (Fig. 6c, d).
(§3) Fig. 6 Effect of PKS21221 and bortezomib (BTZ) on T-cell proliferation. T cells were isolated from human PBMC and stimulated with anti-CD3 (1 µg per ml) and anti-CD28 (1 µg per ml) for 4 days. […] Apoptosis c and viability d were assessed in proliferating and non-proliferating population of T cells. […]
(§4) T cells were isolated from human PBMCs using Human T-cell Isolation kit (StemCell Technologies, Cat#17951). […] Cells were counted and loaded with 5 μM CellTrace Violet (Thermo Fisher) in phosphate buffered saline (PBS) for 10 min at 37 °C, followed by wash in 10% fetal calf serum (FCS)-supplemented RPMI 1640 media. […] The viability and apoptosis were assessed using Annexin V Apoptosis Detection Kit (BD Biosciences). […]

[4] = tested on: proliferating T cells; test: Apoptosis and viability of proliferating vs non-proliferating T cells; assay type: cell-based, human; conditions: 4 days anti-CD3/anti-CD28, then 24 h; PKS21221 1 µM, BTZ 10 nM
Source text: as §2, §3, §4

With CC(C)C[C@H](NC(=O)[C@H](Cc1ccccc1)NC(=O)c1cnccn1)B(O)O [Bortezomib, bortezomib, reference compound] the “ASC percentage in ASC differentiating culture” value [1] was “decreased the percentage of”, the “cytotoxicity to resting CD3+ T cells and CD19+ B cells” value [2] was “more cytotoxic at 10 nM than PKS2122 at 1 µM” and the “proliferation of T cells” value [3] was “inhibited proliferation of T cells in a dose-dependent manner”. For the same compound, the “apoptosis and cell death, proliferating vs non-proliferating T cells” value [4] was “induced apoptosis and cell death to a greater extent in proliferating T cells than in non-proliferating T cells”.

From PMC5700161, “Structure of human immunoproteasome with a reversible and noncompetitive inhibitor that selectively inhibits activated lymphocytes” (Nature Communications, 2017)
